Source: patent US20070292403A1, “Methods of treating a neurological disorder with creatine monohydrate” (priority 2006, published 2007)
“Also recorded” adds a separate entry of the source.

Tests used:
[1] = test system: subjects with early Parkinson's disease (PD); assay: Example 2: randomized double-blind futility trial, change in total UPDRS; type: in vivo, human; conditions: baseline to 12 months or time symptomatic therapy needed; creatine 10 g/day, minocycline 200 mg/day; worst change score imputed
Experimental: (§1) Study Design and Randomization. This example was a single arm futility study designed to assess creatine and minocycline. A placebo arm for calibration was included in the example. Eligible subjects were randomly assigned in a 1:1:1 fashion to receive 1) 10 g/day of creatine monohydrate and placebo minocycline, 2) placebo creatine monohydrate and 200 mg/day of minocycline, or 3) placebo creatine monohydrate and placebo minocycline. The primary futility analysis was at 12 months of follow-up, but each subject was followed for 18 months for additional safety information. Subjects and investigators were kept blinded to treatment group.
Participants. […] Two of the three cardinal manifestations of PD (tremor, rigidity, and bradykinesia) were required; these findings had to be asymmetric. The diagnosis of PD must have been made within 5 years of randomization. Women of childbearing potential were required to use adequate birth control and have a negative pregnancy test at baseline. Subjects were excluded if they had any secondary causes of parkinsonism, such as drug induced parkinsonism or structural lesions; had atypical parkinsonian syndromes; gait freezing or impairment in postural reflexes; had prior stereotaxis surgery for PD; used creatine, minocycline, or any investigational agent within 90 days prior to randomization; had known hypersensitivity to creatine or minocycline; used CoQ10 in doses greater than 300 mg 90 days prior to randomization; or had any clinically significant medical condition that could interfere with the subject's ability to safely participate in the study or be followed.
(§2) Dosages. Creatine was administered as 5 g sachets mixed with 8 ounces of liquid taken twice a day and minocycline was administered as 100 mg capsules taken twice a day. Both were taken with meals.
Outcome measures. […] Disability was assessed by the sight investigator, based on impairment in ambulation, activities in daily living, and occupational status. […] Both the site investigator and medical monitors assessed the potential relationship between SAEs and study drug. […]

[2] = test system: subjects with early Parkinson's disease (PD); assay: Example 2: safety and tolerability in the early Parkinson's disease trial; type: in vivo, human
Experimental: as §1, §2
Outcome measures. The primary, prespecified outcome measure was the change in the total Unified PD Rating Scale (UPDRS) score from baseline to either the time at which there was sufficient disability to warrant symptomatic therapy for PD or 12 months, whichever came first. Disability was assessed by the sight investigator, based on impairment in ambulation, activities in daily living, and occupational status. The mean change in total UPDRS for each treatment group was compared to a prespecified futility threshold of a 30% reduction in the historically derived change in the total UPDRS, which was based on a placebo arm of a previous clinical trial. Tolerability was defined as the proportion of subjects taking study drug for the full 12 months. All […] adverse events (SAEs) were reviewed by the study medical monitor and an independent medical monitor. Both the site investigator and medical monitors assessed the potential relationship between SAEs and study drug.
Study Procedures. At the screening visit, the purpose and potential risks were explained to potential subjects and each subject gave written consent. […] Blood was obtained for serum chemistry and complete blood count. Participants were reevaluated at 1, 3, 6, 9, and 12 months (±6 days) after the baseline visit using the battery of clinical scales and blood was drawn again at 6 and 12 months.

## CN(C)c1ccc(O)c2c1C[C@H]1C[C@H]3[C@H](N(C)C)C(O)=C(C(N)=O)C(=O)[C@@]3(O)C(O)=C1C2=O [Minocycline, minocycline]
[1]
  Mean (SD) change in total UPDRS: 7.09 (8.71)
[2]; creatine 10 g/day, minocycline 200 mg/day
  SAEs occurring during the study: Six
[2]; creatine 10 g/day, minocycline 200 mg/day, 12 months
  Tolerability: generally well tolerated; also recorded: less well tolerated than creatine
[2]; human, in vivo
  Patients with dose reductions: 15
